Like-named read-outs stand apart in the source and are kept apart here.
Assays:
root-knot nematode [1] = conditions: applications of ≧2 mgs KN3/Kg soil, 10 days after application
Procedure: (§1) In this example, the soil used was from a cotton field infested with the root-knot [Meloidogyne incognita], and lance [Hoplolaimus galeatus], nematodes—each a plant parasitic specie. The soil was mixed with washed siliceous river sand (in equal parts by volume), apportioned into one kg amounts in 4 L plastic bags and placed in pots. The test solution was prepared by dissolving 0.500 gms KN3 in an aqueous solution containing 50 mls of a 10% casein [w/v] solution in 0.1N NaOH and diluting with water to a final volume of 500 mls; the solution thus contained 1 mg KN3/ml. The solution was added to soil at rates of 1, 2, 4, 6, 8, and 10 mls/Kg soil. There were for each treatment and controls [no solution], a total of 7 pots each containing 1 Kg of soil. After application of the solution, for each rate, each pot was covered with a plastic bag. The pots were placed on a greenhouse bench and were arranged in a randomized block design. After 10 days the covers were removed, soil samples were collected from each pot for nematological analyses and “Young” soybean were planted [5 seed/pot]. The resulting plants were allowed to grow for 7 weeks when they were carefully separated from the soil and growth parameters measured. The roots and final soil samples were incubated to determine nematode populations. Nematode numbers in soil and roots were determined using the salad bowl incubation technique.

lance nematode = conditions: applications of ≧2 mgs KN3/Kg soil, 10 days after application
Procedure: as §1

"Young" soybean = conditions: range 1-8 mgs/Kg soil; sharpest increases at 1 and 2 mgs rates; soybean grown 7 weeks
Procedure: as §1

[2] = system: beneficial microbivorous nematodes
Procedure: as §1

reniform nematode = system: reniform nematode
Procedure: (§2) The liquid potassium azide compound was added to the soil in an aqueous solution of amounts of: 1, 2, 3, 4 and 5 mgs KN3 per kg of soil. The formulation used for this experiment 1% KN3 and 0.5% sodium lauryl sulfate. Soil samples were collected one week after the application of the KN3 solution for nematological analysis using such techniques as the salad bowl incubation technique.

microbivorous nematodes = conditions: 1-5 mgs KN3 per kg of soil, one week after application
Procedure: as §2

weeds [3] = system: weeds
'Huskie' tomato = conditions: tomato grown 3 months
Source text: (§3) The formulation contained 5% [w/v] […] Soil in the microplots was a sandy loam [pH=6.2; organic matter content <1.0%; C.E.C <10 meq/100 g soil] infested with the nematodes: Meloidogyne incognita, Paratrichodorus minor, Tylenchorhynchus claytoni, and Helicotylenchus dihystera 1]. Weeds in the plots were principally crabgrass [Digitaria sanguinalis], yellow nutsedge [Cyperus esculentum], pigweed [Amaranthus spp.], and morning glories [Ipomea spp., Jacquemontia tamnifolia].
(§4) The plots were covered with standard polyethylene [1 mil] tarp immediately after application of the chemical. After 10 days the cover was removed, the number of weeds was determined, soil samples for nematological analyses were taken and each plot was planted with two 4-week old ‘Huskie’ tomato seedlings. The plants were grown for 3 months and data were collected on yield, number of fruits, weed infestation and nematode populations.

"Rowden" cotton = system: "Rowden" cotton
Procedure: (§5) The aqueous formulation was a solution containing 1% [w/v] […] After thorough mixing, the contents of a bag were poured into 1 L capacity, 10-cm-diam cylindrical plastic pots which were then covered with standard polyethylene [[…]]. Each rate and the no treatment control was represented by 7 replications [pots] arranged in a randomized complete block design. Ten days after application of the chemical solution, the pots were uncovered and 5 seed of “Rowden” cotton [Gossypium hirsutum] were planted in each pot. The resulting plants were grown for 8 weeks. When the plants were removed after 8 weeks, soil samples were collected for nematological analyses. The shoots and roots of the plants were weighed and the root systems were examined and indexed for disease severity symptoms. Following examination, the roots were incubated to determine nematode populations.

[4] = system: plant parasitic nematodes (cotton wilt complex Fusarium oxysporum f sp. vasinfectum×Meloidogyne incognita); conditions: all NaN3 dosages, 10-100 mgs a.i./kg soil; 8 weeks after planting
Procedure: as §5

[5] = system: coastal bermuda grass, yellow nutsedge and other weeds
Source text: (§6) The soil was a calcareous silty clay loam with pH 7.8 and <1% organic matter. […] Each dosage rate was delivered into pre-acidified soil as well as in non-acidified and administered using 3 different water levels: 3, 10, and 15 L/m^2. Acidification was with H2SO4 to lower soil pH to less than 7.00. […] After 3 weeks the soil was uncovered and a soil sample was removed for nematological analyses and the weeds were counted.

root-knot nematode [6] = conditions: dosages of 100 and 200 kg/ha, 3 weeks after application
Source text: as §6

pepper or tomato plants = conditions: seedlings transplanted 6 weeks after NaN3 application, 100 and 200 kg/ha
'Black Beauty' eggplant = conditions: eggplant grown 2 months; rates 0-5.0 g/plot
Source text: (§7) The square microplots of 1 ft^2 [929 cm^2] and 2 feet [61 cms] deep having an open-bottom were used. Each microplot was delimited by a terra-cotta chimney flue. The soil filling the plot was a sandy loam [pH=6.2; organic matter content <1.0%; C.E.C <10 meq/100 g soil] and was infested with the nematodes: Meloidogyne incognita [root-knot], Paratrichodorus minor [stubby root], Tylenchorhynchus claytoni [stunt], and Helicotylenchus dihystera [spiral]. Weeds introduced into the plots were principally crabgrass [Digitaria sanguinalis], yellow nutsedge [Cyperus esculentum], pigweed [Amaranthus spp.], and morning glories [Ipomea spp., Jacquemontia tamnifolia].
(§8) The plots were covered with standard polyethylene [1 mil] and after 10 days the cover was removed, the number of weeds was determined, soil samples for nematological analyses were taken and each plot was planted with two 3-week old ‘Black Beauty’ eggplant [Solanum melongena] seedlings. The plants were grown for 2 months and data were collected on yield, weed infestation and nematode populations.

weeds [7] = system: weeds; remark: listed apart in the source
Source text: as §7, §8

[8] = system: plant parasitic nematodes
Source text: as §7, §8

[9] = system: plant parasitic nematodes; experiment: Microplot experiment, amine-protein stabilized NaN3, nematode control (Example 3); type: in vivo
Source text: as §3, §4

weeds [10] = experiment: Microplot experiment, amine-protein stabilized NaN3, weed control (Example 3); type: in vivo; conditions: all but the three lowest rates of NaN3
Source text: as §3, §4

[11] = plots treated with ≦2.0 g NaN3 rates
[12] = three highest rates (3.0, 4.0, 5.0 g/plot)

SMILES: [K+].[N-]=[N+]=[N-] [KN3, potassium azide]
- root-knot nematode population in the preplant sample (root-knot nematode [1]): eliminated
- lance nematode population in the preplant sample (lance nematode): eliminated
- plant response as measured by the weights of shoots and roots ("Young" soybean): positive and pronounced
- numbers of beneficial microbivorous nematodes ([2]; 1 and 2 mg application rates): pronounced stimulation
- populations of beneficial microbivorous nematodes ([2]; application rates <6 KN3/Kg, final soil): not adversely affected
- application rate necessary to significantly reduce or eliminate microbivorous nematodes ([2]; in vivo): > 4 mgs/Kg soils
- numbers of reniform nematode in response to increasing KN3 (reniform nematode; 1-5 mgs KN3 per kg of soil, one week after application): declined exponentially
- control of the reniform nematodes (reniform nematode; rates of 4-5 mg of KN3 per kg of soil): ~100%
- numbers of microbivorous nematodes in response to increasing KN3 (microbivorous nematodes): declined in an almost linear fashion
- number of weeds (weeds [3]; KN3 rates of 20-200 mg/kg of soil): declining in proportion to rates used
- control rates for weeds (weeds [3]; rates of greater than 140 mg/kg of soil): over 80%

SMILES: [N-]=[N+]=[N-].[Na+] [NaN3, sodium azide]
- yield and number of fruits ('Huskie' tomato): increased directly in response to NaN3 rates from 0-4 g/plot
- weights of shoots and roots ("Rowden" cotton; NaN3 rates 10-60 mgs/kg soil): Sharp increases
- weights of shoots and roots ("Rowden" cotton; NaN3 rates ≧70 mgs/kg soil): no additional weight increments
- cotton root health [root condition index] ("Rowden" cotton; all NaN3 dosages, 10-100 mgs/kg soil): markedly improved
- plant parasitic nematodes in soil and roots [4]: eliminated from the soil and roots
- effectiveness against nutsedge ([5]; 100 and 200 kg/ha): particularly effective
- weeds controlled ([5]; dosages of 100 and 200 kg/ha, 3 weeks after application): all weeds
- nematodes controlled (root-knot nematode [6]): greater than 90%
- phytotoxicity to pepper or tomato plants (pepper or tomato plants): no evidence of phytotoxicity
- yield and number of fruits ('Black Beauty' eggplant): increased directly in response to NaN3 rates from 0-1.5 g/plot and leveled out
- weeds at planting (weeds [7]; 10 days after drench, all but the two lowest rates of NaN3): no weeds
- weeds at the end of the experiment (weeds [7]; [11]): significant populations
- weed infestation at the end of the experiment (weeds [7]; [12]): no significant weed infestation
- nematodes in planting time soil samples ([8]; 10 days after drench, plots treated with 0.5-5.0 g sodium azide/plot, control plots infested with all species): no nematodes
- plant parasitic nematodes at the end of the experiment [8, 11]: significant populations
- plant parasitic nematodes at the end of the experiment [8, 12]: no plant parasitic nematodes
- nematodes in soil samples at planting ([9]; 10 days after drench, 0.5-5.0 g/plot, controls had significant numbers of all species): did not contain nematodes
- plant parasitic nematodes at the end of the experiment ([9]; all rates of application): no plant parasitic nematodes
- weeds at planting time (weeds [10]): no weeds
